ChEMBL document CHEMBL1201862, “PubChem BioAssay data set” (2004)
Active and inactive are the calls of the source.

Tests used:
Hexokinase HKDC1 = target: T1, Hexokinase HKDC1 (Homo sapiens, UniProt Q2TB90); assay: HKDC1 hexokinase inhibitors, dose response, biochemical, W721R variant (AID 504729); assay type: functional
T1 sequence (Q2TB90 whole entry): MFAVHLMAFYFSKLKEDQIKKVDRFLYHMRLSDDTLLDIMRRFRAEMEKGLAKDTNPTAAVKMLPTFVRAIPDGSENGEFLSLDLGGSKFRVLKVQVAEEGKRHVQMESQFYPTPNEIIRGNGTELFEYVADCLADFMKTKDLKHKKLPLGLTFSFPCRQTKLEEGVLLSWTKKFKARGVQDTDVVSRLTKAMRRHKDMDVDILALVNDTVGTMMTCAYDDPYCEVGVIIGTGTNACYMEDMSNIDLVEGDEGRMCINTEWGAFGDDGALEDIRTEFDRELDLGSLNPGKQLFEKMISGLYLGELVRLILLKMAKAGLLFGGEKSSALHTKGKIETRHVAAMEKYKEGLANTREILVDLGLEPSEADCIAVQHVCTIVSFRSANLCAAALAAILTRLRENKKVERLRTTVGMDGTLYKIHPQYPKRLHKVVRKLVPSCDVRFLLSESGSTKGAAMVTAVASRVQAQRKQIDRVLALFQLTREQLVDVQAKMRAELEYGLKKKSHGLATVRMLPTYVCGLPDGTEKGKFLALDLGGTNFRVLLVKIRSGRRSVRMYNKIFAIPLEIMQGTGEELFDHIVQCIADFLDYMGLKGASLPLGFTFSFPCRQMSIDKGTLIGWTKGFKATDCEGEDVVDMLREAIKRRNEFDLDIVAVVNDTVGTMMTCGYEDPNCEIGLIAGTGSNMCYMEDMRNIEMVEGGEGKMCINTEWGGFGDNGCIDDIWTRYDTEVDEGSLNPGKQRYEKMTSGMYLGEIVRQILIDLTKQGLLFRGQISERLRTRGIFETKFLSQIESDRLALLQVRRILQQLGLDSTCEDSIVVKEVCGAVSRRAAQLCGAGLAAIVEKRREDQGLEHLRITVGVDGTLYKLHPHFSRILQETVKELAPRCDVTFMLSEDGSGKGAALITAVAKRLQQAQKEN

Genome polyprotein = Genome polyprotein (dengue virus type 2, UniProt P29990); assay: Dengue-2 NS5 methyltransferase inhibitors, primary screen, biochemical, confirmation dose response (AID 588689); assay type: functional
[1] = target: Glucose-6-phosphate 1-dehydrogenase (Homo sapiens, UniProt P11413); assay: human G6PD enzyme inhibitors, dose response, selectivity assay for P. falciparum G6PD inhibitor project, biochemical, fluorescence (AID 504792); assay type: functional
[2] = target: T2, Long-chain-fatty-acid--AMP ligase FadD28 (Mycobacterium tuberculosis, UniProt P9WQ59); assay: Fluorescence polarization aasay to screen for inhibitors that compete for the binding of FadD28 to a bisubstrate Measured in Biochemical System Using Plate Reader - 2147-01_Inhibitor_Dose_CherryPick_Activity.; assay type: functional, Mycobacterium tuberculosis H37Rv
T2 sequence (P9WQ59 whole entry): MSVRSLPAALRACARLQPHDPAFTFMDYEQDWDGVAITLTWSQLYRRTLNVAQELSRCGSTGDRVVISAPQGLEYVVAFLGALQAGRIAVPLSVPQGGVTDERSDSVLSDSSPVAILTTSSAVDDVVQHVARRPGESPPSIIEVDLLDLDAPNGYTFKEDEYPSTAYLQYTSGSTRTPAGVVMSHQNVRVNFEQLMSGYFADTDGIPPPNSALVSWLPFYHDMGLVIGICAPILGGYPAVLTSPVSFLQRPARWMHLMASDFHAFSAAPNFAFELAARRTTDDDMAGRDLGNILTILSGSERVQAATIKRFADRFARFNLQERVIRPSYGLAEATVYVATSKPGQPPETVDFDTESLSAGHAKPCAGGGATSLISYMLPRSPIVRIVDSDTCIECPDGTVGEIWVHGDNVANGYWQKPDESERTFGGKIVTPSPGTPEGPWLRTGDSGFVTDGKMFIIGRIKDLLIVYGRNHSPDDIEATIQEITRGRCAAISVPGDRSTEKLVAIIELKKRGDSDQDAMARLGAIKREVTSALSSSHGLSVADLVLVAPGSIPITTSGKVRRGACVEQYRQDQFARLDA

[3] = target: Dual specificity tyrosine-phosphorylation-regulated kinase 1A (Rattus norvegicus, UniProt Q63470); assay type: biochemical, Homo sapiens
Cytochrome P450 3A4 = Cytochrome P450 3A4 (Homo sapiens, UniProt P08684);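 further: CYP3A4 tested as one member of a cytochrome P450 panel screen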
[4] = target: T3, Mannose-6-phosphate isomerase (Homo sapiens, UniProt P34949); assay: PMI enzyme inhibitors, confirmation, biochemical, fluorescence intensity (AID 1535)
T3 sequence (P34949 whole entry): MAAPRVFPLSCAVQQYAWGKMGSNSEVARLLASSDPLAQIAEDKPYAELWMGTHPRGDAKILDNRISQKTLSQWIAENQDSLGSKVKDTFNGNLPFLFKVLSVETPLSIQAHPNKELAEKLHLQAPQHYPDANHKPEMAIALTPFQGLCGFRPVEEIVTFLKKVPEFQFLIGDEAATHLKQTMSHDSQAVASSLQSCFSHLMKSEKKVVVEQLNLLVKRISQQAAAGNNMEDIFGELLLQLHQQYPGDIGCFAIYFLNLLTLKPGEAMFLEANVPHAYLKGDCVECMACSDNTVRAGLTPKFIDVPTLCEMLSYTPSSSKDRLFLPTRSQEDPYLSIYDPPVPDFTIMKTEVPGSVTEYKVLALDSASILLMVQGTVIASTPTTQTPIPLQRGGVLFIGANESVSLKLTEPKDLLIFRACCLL

Phosphomannomutase 2 = Phosphomannomutase 2 (Homo sapiens, UniProt O15305); assay: Counter screen SAR assay for PMM2 inhibitors via a fluorescence intensity assay. [Related pubchem assays (depositor defined):AID1545, AID1574]
[5] = insulin promoter down-regulators in MIN6 cells, imaging, high-content screening, mouse beta cells (AID 1628); assay type: functional
[6] = cytotoxicity in MIN6 insulinoma cells, dose response, cytotoxicity control, cell-based, mouse insulinoma (AID 2122); assay type: functional;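 further: confirmatory high-throughput counterscreen run to flag cytotoxic compounds; mouse MIN-6 beta cells carrying an insulin promoter eGFP reporter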
[7] = target: T4, Corticotropin-releasing factor receptor 2/Corticotropin-releasing factor-binding protein (Homo sapiens, UniProt P24387+Q13324); assay: activators of CRF receptor 2 with binding protein – uHTS hits, confirmation (AID 602473); assay type: functional; details: read-out: EC50_Mean
T4 sequence (Q13324 whole entry): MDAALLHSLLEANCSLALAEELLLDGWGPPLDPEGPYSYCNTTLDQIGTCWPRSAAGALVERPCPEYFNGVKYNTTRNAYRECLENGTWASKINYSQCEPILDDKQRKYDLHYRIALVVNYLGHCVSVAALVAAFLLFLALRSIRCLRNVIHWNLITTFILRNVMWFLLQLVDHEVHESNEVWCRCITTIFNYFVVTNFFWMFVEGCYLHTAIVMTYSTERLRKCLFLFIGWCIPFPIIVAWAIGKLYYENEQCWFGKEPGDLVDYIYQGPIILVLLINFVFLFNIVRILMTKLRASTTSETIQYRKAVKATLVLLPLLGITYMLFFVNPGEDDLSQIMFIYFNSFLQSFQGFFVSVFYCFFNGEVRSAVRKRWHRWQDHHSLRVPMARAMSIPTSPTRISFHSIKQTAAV
T4 sequence (P24387 whole entry): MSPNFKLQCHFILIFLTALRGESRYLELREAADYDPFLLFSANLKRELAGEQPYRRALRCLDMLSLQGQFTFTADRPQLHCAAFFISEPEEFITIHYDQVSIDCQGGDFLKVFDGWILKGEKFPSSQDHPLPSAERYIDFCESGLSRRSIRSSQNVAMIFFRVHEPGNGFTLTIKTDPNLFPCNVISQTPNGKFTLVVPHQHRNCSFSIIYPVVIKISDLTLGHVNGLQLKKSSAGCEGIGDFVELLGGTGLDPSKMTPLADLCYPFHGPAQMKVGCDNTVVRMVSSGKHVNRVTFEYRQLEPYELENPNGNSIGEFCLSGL

[8] = CRF-BP/CRF-R2 complex antagonists, dose response, cell-based, uHTS hits, 384-well (AID 651639); assay type: functional, Homo sapiens; details: read-out: IC50_Mean
[9] = target: T4, Corticotropin-releasing factor receptor 2/Corticotropin-releasing factor-binding protein; assay: Dose Response confirmation of uHTS hits for small molecule antagonists of the CRF-binding protein and CRF-R2 receptor complex.; assay type: functional; details: read-out: IC50_Mean
Phospholipase A2 = Phospholipase A2 (Homo sapiens, UniProt P04054); assay type: functional;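 further: confirmatory dose-response counterscreen on phospholipase A2, testing hits that came from an ultra-high-throughput screen for ATG4B inhibitors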
[10] = target: T5, Polyadenylate-binding protein 1 (Homo sapiens, UniProt P11940); assay: PABP1 MLLE–PAM2 binding inhibitor potency, dose response, biochemical, fluorescence polarization, FITC-PAM2 peptide (AID 602259); assay type: functional; details: read-out: IC50_Mean
Cysteine protease ATG4B = Cysteine protease ATG4B (Homo sapiens, UniProt Q9Y4P1); assay type: functional;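 further: Fluorescence-based dose-response confirmation assay measuring inhibition of ATG4B activity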
[11] = target: T5, Polyadenylate-binding protein 1; assay: PABP1 MLLE–PAM2 interaction inhibitors, dose response, miRNA deadenylation inhibitor project, biochemical, fluorescence polarization, Cy5-PAM2 peptide, secondary (AID 602260); assay type: functional; details: read-out: IC50_Mean
[12] = target: T3, Mannose-6-phosphate isomerase; assay: human PMI inhibitors, high substrate, primary screen, biochemical, fluorescence intensity, high mannose 6-phosphate (AID 1220)
Cytochrome P450 1A2 = target: T6, Cytochrome P450 1A2 (Homo sapiens, UniProt P05177);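 further: PubChem cytochrome P450 panel assay, CYP1A2 panel member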
T6 sequence (P05177 whole entry): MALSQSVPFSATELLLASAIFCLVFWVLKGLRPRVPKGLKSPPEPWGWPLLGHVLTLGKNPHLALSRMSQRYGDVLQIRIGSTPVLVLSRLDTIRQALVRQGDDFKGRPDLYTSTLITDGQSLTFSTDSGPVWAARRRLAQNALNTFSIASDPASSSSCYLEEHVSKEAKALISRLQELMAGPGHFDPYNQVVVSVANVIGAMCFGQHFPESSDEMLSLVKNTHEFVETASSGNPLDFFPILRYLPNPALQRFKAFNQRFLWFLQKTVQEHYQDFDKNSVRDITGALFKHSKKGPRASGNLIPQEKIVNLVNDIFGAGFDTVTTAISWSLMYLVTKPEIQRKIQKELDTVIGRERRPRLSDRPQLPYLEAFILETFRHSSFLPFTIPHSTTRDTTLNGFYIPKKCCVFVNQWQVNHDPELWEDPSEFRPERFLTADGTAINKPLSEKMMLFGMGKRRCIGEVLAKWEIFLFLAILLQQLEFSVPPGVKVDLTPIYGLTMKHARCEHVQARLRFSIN

Cytochrome P450 2C19 = Cytochrome P450 2C19 (Homo sapiens, UniProt P33261); assay: Cytochrome panel assay with activity outcomes. Panel member name: p450-cyp2c19 Compounds with AC50 equal or less than 10 uM are considered active; assay type: functional
[13] = target: Voltage-gated inwardly rectifying potassium channel KCNH2 (Homo sapiens, UniProt Q12809); details: Potency;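 further: confirmatory quantitative high-throughput screen measuring inhibition of hERG channel activity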
Chain of Voltage-gated inwardly rectifying potassium channel KCNH2 (Q12809 whole entry): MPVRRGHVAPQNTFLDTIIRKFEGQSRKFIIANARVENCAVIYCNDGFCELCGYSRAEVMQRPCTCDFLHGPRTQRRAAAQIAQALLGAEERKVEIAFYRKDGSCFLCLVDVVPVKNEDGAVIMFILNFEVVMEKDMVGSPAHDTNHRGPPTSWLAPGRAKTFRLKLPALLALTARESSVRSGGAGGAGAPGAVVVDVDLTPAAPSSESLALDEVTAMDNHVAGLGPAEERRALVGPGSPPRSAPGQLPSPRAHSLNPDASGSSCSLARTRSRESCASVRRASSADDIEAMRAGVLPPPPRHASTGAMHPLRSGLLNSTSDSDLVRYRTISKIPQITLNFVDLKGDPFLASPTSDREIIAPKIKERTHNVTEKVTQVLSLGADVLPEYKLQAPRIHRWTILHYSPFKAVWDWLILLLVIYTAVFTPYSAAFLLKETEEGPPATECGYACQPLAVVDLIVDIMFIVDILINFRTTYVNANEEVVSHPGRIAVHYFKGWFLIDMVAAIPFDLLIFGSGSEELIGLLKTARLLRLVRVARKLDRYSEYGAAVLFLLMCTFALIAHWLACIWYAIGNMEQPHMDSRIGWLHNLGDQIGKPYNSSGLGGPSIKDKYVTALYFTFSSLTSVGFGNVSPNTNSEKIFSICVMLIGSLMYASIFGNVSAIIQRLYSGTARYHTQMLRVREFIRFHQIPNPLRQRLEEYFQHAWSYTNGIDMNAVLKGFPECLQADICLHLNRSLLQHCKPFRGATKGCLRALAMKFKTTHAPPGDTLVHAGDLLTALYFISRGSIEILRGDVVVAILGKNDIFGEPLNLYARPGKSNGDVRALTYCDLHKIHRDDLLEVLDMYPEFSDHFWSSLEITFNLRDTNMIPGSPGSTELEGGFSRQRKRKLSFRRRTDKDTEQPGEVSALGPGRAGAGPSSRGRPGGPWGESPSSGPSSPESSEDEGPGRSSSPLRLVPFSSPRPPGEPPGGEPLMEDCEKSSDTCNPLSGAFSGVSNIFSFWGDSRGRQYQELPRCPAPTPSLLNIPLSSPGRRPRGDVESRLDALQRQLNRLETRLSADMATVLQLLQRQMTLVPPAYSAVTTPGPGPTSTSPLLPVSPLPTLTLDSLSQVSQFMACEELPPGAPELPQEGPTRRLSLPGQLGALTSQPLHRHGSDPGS

Chain of Phosphomannomutase 2 (O15305 whole entry): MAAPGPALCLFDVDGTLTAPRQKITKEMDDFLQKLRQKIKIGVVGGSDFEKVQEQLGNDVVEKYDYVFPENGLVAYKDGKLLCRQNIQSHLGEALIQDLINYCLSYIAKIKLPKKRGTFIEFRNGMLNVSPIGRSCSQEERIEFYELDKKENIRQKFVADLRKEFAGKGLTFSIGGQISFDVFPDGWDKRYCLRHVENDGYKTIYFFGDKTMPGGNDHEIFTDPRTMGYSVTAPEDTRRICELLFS
Chain of Cysteine protease ATG4B (Q9Y4P1 whole entry): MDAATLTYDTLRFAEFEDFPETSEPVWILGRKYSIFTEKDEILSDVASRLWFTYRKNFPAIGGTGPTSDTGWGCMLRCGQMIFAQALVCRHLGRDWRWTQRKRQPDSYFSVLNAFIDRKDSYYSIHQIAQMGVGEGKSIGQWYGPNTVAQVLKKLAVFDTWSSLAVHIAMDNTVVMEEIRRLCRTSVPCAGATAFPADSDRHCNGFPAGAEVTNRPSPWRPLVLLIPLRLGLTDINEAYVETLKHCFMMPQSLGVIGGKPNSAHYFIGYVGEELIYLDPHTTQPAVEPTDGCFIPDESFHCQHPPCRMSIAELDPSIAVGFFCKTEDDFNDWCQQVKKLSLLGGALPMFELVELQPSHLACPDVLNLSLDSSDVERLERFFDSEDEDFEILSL
Chain of Cytochrome P450 3A4 (P08684 whole entry): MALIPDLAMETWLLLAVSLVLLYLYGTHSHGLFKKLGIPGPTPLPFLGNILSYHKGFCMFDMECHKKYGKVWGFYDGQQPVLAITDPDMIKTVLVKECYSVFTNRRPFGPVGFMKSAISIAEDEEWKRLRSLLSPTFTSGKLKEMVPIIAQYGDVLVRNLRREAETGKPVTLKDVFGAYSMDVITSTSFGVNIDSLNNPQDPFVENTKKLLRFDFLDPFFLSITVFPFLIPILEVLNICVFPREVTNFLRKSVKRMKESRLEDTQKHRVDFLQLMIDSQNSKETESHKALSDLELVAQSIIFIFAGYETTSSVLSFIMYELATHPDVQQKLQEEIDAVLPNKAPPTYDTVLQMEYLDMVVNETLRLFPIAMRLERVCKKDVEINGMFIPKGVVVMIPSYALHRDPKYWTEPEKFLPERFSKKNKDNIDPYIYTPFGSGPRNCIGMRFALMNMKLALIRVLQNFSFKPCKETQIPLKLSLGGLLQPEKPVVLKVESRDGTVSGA
T5 sequence (P11940 whole entry): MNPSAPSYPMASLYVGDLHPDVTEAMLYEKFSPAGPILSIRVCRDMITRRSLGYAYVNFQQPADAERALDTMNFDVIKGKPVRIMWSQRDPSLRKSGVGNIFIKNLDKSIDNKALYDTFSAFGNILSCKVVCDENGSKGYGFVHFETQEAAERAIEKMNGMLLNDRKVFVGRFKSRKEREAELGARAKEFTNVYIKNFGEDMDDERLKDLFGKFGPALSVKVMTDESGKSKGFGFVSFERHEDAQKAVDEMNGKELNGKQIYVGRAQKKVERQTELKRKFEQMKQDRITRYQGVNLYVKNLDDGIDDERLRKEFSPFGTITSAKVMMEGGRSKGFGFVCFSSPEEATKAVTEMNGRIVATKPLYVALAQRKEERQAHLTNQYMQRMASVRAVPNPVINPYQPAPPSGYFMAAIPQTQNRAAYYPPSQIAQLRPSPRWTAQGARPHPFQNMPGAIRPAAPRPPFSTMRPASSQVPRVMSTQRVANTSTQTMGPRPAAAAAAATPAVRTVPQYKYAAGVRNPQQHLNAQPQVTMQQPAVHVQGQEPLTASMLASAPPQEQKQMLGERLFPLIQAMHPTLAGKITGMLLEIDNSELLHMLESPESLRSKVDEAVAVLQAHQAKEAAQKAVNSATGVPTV
Chain of Glucose-6-phosphate 1-dehydrogenase (P11413 whole entry): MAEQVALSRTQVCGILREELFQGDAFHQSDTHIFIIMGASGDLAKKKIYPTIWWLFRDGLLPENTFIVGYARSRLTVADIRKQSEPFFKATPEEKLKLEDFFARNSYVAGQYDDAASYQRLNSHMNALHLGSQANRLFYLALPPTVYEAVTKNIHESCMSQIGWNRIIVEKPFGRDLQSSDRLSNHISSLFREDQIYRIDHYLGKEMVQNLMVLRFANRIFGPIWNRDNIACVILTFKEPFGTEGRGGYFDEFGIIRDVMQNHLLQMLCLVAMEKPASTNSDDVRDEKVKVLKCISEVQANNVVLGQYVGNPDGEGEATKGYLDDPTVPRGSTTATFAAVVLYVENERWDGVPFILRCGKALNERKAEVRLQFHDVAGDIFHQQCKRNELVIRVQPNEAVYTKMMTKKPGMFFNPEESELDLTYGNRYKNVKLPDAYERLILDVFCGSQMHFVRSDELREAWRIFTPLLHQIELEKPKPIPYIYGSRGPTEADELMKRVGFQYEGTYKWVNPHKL
Chain of Phospholipase A2 (P04054 whole entry): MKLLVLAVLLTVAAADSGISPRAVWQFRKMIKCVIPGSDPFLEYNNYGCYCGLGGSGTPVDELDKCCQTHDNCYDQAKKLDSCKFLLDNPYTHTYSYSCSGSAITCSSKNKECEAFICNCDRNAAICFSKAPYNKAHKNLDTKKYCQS
Chain of Cytochrome P450 2C19 (P33261 whole entry): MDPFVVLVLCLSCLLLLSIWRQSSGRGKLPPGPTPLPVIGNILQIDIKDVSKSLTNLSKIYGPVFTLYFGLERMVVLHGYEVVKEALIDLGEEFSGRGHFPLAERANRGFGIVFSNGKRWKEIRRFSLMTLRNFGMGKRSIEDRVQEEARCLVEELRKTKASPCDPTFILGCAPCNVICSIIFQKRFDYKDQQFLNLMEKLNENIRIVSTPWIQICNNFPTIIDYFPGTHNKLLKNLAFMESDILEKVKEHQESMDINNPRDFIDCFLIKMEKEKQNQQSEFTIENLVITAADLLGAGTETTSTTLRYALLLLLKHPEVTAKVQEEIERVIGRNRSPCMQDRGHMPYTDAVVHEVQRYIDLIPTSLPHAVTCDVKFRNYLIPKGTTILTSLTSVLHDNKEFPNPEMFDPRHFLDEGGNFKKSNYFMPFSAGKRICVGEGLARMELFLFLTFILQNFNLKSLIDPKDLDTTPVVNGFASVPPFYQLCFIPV
Chain of Genome polyprotein (P29990 2492-3391 limits assumed): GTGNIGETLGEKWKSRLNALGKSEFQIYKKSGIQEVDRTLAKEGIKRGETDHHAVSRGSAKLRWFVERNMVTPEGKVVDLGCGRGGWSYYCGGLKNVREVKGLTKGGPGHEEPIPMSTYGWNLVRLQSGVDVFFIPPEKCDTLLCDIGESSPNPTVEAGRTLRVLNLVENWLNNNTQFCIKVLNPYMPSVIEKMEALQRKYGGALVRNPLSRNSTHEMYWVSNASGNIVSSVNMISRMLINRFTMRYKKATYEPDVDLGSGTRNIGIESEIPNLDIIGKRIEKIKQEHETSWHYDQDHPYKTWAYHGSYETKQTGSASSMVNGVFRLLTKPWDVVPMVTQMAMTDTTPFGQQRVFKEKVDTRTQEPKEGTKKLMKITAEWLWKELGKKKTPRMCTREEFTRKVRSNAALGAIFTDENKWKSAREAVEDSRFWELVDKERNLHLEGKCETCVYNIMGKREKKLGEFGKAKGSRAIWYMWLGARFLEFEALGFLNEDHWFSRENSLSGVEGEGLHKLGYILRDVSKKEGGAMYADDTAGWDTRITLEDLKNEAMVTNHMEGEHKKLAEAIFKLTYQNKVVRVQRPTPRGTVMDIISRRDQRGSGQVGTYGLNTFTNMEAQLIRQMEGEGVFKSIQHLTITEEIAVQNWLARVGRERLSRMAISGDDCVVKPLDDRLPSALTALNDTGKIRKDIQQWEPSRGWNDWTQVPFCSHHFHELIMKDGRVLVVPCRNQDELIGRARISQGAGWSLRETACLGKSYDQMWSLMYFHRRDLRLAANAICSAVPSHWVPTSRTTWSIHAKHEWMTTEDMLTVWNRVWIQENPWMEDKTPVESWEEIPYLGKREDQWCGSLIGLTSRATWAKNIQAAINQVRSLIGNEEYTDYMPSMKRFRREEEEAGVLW

In the case of `Nc1ccc(S(=O)(=O)c2cc(O)c3ccccc3c2O)cc1`, the IC50 (Hexokinase HKDC1) is reported as 18.1 µM (active), the IC50 (Genome polyprotein) is reported as 5.47 µM (active) and the IC50 [1] is reported as > 80 µM (inactive). The AC50 [2] was > 100 µM (inactive).
For `COc1ccc2c3c([nH]c2c1)C(C)N(CCC(=O)NN)CC3` (centres undefined), the AC50 [3] was 1.45 µM (active).
With `COc1ccccc1C(=O)N1CCN(c2ccccn2)CC1` the AC50 (Cytochrome P450 3A4) was “inconclusive”.
In the case of `Clc1ccc(/N=c2\ssnc2Cl)cc1Cl`, the IC50 [4] is reported as 16.9 µM (active) and the IC50 (Phosphomannomutase 2) is reported as 88.6 µM (active).
With `COc1ccc(OC)c(-c2csc(NC(=O)c3ccc(OCC4CCCO4)cc3)n2)c1` (centres undefined) the IC50 [5] was 2.4 µM (active) and the IC50 [6] was 2.19 µM (active).
With `c1ccc2c(c1)OCCOCCOCCOCCOCCOc1ccccc1OCCOCCOCCO2` the IC50 [5] was 2.89 µM (active), the EC50 [7] was 12.5 µM (active) and the IC50 [8] was 10.4 µM (active). For the same compound, the IC50 [6] was 5.48 µM (active) and the IC50 [9] was 2.76 µM (active).
For `Cc1ccc(-n2c(SCC(=O)N/N=C/c3c(C)nn(-c4ccccc4)c3C)nc3ccccc3c2=O)cc1`, the IC50 (Phospholipase A2) was 1.86 µM (active), the IC50 [10] was > 66 µM (inactive) and the IC50 (Cysteine protease ATG4B) was 14.2 µM (active). The IC50 [11] was > 66 µM (inactive).
In the case of `COc1ccc(-n2c(=S)[nH]c3c(sc(=S)n3-c3ccccc3)c2=O)c(OC)c1`, the IC50 [12] is reported as 37.6 µM (active) and the IC50 [1] is reported as > 80 µM (inactive).
In the case of `c1cncc(-c2cccnc2)c1`, the AC50 (Cytochrome P450 1A2) is reported as 15.8 µM (inconclusive), the AC50 (Cytochrome P450 3A4) is reported as “inconclusive” and the AC50 (Cytochrome P450 2C19) is reported as “inconclusive”.
With `O=c1c2ccccc2nc(/C=C/c2ccc(O)cc2)n1CCc1ccccc1` the IC50 (Phospholipase A2) was 12.2 µM (active) and the IC50 (Cysteine protease ATG4B) was 17.2 µM (active).
For `Cc1cc(-n2sc3ccccc3c2=O)c2ccccc2n1`, the IC50 [4] was > 50 µM (inactive) and the IC50 (Phosphomannomutase 2) was > 100 µM (inactive).
In the case of `CCc1ccc(C(c2ccc(CC)cc2)C(Cl)Cl)cc1`, the AC50 [13] is reported as 22.4 µM (inconclusive).
